Values quoted from earlier work as cited in patent publication US7501409B2, “Preparations for oral administration” (Mitsubishi Tanabe Pharma Corporation, priority 2000, dated 2009).
Structures can show the parent of a compound that is named as a salt. Where two headings read alike, the source gives them in different places.

solubility (pH 1.2): 2520 µg/mL
solubility (pH 6.8): 110 µg/mL
SMILES: CCCc1nn(C)c2c(=O)[nH]c(-c3cc(S(=O)(=O)N4CCN(C)CC4)ccc3OCC)nc12 [sildenafil citrate]
